Patent US20230348376A1 (TEIJIN PHARMA LIMITED, priority 2020, published 2023)

Experiments:
[1] = target: T1, human VDR (Homo sapiens, UniProt P11473); assay: Evaluation of VDR transcription activity in human osteoblasts (HOS cells), luciferase reporter; settings: Activity (EC50, VDR transcription activity), HOS cells transfected with human VDR, human RXRα and DR3 luciferase reporter; 21 hours
T1 sequence (P11473 1-427): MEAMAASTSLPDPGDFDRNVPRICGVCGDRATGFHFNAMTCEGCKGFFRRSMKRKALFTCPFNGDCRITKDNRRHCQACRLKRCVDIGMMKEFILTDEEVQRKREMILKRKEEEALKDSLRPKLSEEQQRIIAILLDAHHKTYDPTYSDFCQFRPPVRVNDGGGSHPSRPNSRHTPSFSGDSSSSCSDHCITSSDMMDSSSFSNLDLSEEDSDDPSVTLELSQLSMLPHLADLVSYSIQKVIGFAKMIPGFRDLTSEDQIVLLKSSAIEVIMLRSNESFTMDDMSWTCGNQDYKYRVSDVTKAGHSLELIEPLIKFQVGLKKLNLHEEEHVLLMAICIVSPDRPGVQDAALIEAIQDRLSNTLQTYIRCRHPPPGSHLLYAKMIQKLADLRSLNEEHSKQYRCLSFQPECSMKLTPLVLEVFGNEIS
T1 sequence (P19793 1-462 partner): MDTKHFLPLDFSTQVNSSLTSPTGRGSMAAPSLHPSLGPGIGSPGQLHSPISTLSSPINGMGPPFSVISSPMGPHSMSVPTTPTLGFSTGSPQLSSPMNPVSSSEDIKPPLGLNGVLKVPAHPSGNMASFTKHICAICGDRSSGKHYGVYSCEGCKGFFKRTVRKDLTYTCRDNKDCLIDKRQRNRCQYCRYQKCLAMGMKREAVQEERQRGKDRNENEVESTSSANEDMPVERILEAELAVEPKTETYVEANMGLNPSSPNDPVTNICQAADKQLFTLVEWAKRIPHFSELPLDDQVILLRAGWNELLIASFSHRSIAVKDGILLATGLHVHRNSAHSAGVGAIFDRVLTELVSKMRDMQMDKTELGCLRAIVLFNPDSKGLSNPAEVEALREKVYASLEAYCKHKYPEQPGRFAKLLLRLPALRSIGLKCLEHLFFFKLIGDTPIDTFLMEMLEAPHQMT

[2] = system: rat oligodendrocyte progenitor cells; assay: Promotive activity of rat oligodendrocyte progenitor cell differentiation-2 (immunostaining of MBP); format: cell-based; settings: Test 2; vitamin D derivative 2 μM, T3 30 nM; 4 days
How it was run: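 Vitamin D derivatives scored as symbols for promoting differentiation, read out by MBP immunostaining. OPCs taken from supernatant after about 22 h shaking (37 °C, 200 rpm) in separation medium.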

[3] = system: mouse neural stem cells (NSCs); assay: Promoting activity in oligodendrocyte differentiation of mouse neural stem cell (GalC immunostaining); format: cell-based; settings: day 10, N=5
Procedure: To NSC basal medium (100 mL) included in this product, B27 (1 mL), Penicillin-Streptomycin (1 mL), Glutamine (1 mL), bFGF (20 μL), EGF (10 μL), and Heparin (100 μL) were added to prepare the growth medium. Mouse neural stem cells were reconstituted in a T-25 flask using the growth medium and proliferated as a neurosphere by suspension culture. The cells were expanded by passaging at a split ratio=1:2 in a CO2 incubator (5% CO2, 37° C., wet) to obtain the required number of cells. ACCUTASE (Innovative Cell Technologies, Cat. No. AT104) was used as the passage reagent.
The differentiation medium containing test substance was prepared to a target final concentration by diluting a solution of 20 mM compound in DMSO to 10-fold with DMSO and then to 2×10^5-fold with the differentiation medium. Additive-free differentiation medium for control was prepared by diluting DMSO to 2×10^5-fold with the differentiation medium to be a final concentration of 5×10^−5%.
The mouse neural stem cells were seeded on a poly-L-Lysine/Laminin-coated 96-well plate at a cell density of 2.0×10^4 cells/100 μL/well using the differentiation medium and the culture was started in a CO2 incubator (5% CO2, 37° C., wet). The next day, the medium was replaced with the differentiation medium containing a test substance or an additive-free differentiation medium for control, and evaluation of the test substance (N=5) was started (day 0). The medium was replaced every other day by 60% of the medium in the wells. On day 10, cells were fixed and immunostained.
After the medium was removed, the cells were fixed by adding 100 μL of 4% paraformaldehyde-PBS and being incubated at room temperature for 30 minutes. Next, the cells were washed 3 times with PBS, 100 μL of 5% Goat Serum/PBS was added thereto, and the mixture was incubated at room temperature for 30 minutes to perform blocking and membrane permeation treatment. […] After the cells were washed 3 times with PBS, 100 μL of PBS was added to the wells, and the wells were photographed with fluorescence microscopy. Images were taken under the same condition in all wells, and blue fluorescence and green fluorescence were simultaneously photographed.
Using the hybrid cell counting software provided in the fluorescence microscope (Keyence, BZ-X700), co-localized spots of green fluorescence and blue fluorescence were extracted, and the number of these spots was defined as the total number of GalC-positive cells, and the oligodendrocyte differentiation ratio was calculated by the following calculation:the total number of GalC-positive cells/the number of nuclei (number of blue fluorescence spots). A significant difference test was performed by t-test between the additive-free group and the sample-added group.

C[C@H](CCN1CCOCC1)[C@H]1CC[C@H]2/C(=C/C=C3C[C@@H](O)C[C@H](O)C3)CCC[C@]12C [Compound D023, (1R,3R)-5-(2-((1R,3aS,7aR,E)-7a-methyl-1-((R)-4-morpholinobutan-2-yl)octahydro-4H-inden-4-ylidene)ethylidene)cyclohexane-1,3-diol]
EC50 [1]: 10 to 100 nM | Mean (number of MBP-positive cells/number of Hoechst33342-positive cells) [2]: 0.36 | Gal/C positive ratio Average value ([3]; 10 nM): 8.63 | Gal/C positive ratio Average value ([3]; 100 nM): 11.51 | Gal/C positive ratio Average value ([3]; 1000 nM): 12.19
